# Source: PubChem BioAssay (NCI)
#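 Assay format: 96-well plates, 48-hour exposure. Abbreviation: GI50, concentration required for 50% inhibition of growth. The concentration for full growth arrest is given as TGI.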
# How the values were obtained:
# Assay in all cases: NCI tumour cell line growth inhibition, 48 h
# SW-620 colon = test system: SW-620 colon
# MCF7 breast = test system: MCF7 breast
# BT-549 breast = test system: BT-549 breast
# K-562 leukemia = test system: K-562 leukemia
# HL-60(TB) leukemia = test system: HL-60(TB) leukemia
# CAKI-1 renal = test system: CAKI-1 renal
# KM12 colon = test system: KM12 colon
# OVCAR-5 ovarian = test system: OVCAR-5 ovarian
# M14 melanoma = test system: M14 melanoma
# OVCAR-8 ovarian = test system: OVCAR-8 ovarian
# SF-295 CNS = test system: SF-295 CNS
# MDA-MB-435 = test system: MDA-MB-435
# SK-MEL-2 melanoma = test system: SK-MEL-2 melanoma
# UACC-62 melanoma = test system: UACC-62 melanoma
# NCI-H460 lung = test system: NCI-H460 lung
# NCI/ADR-RES ovarian = test system: NCI/ADR-RES ovarian
# HOP-92 NSCLC = test system: HOP-92 NSCLC
# NCI-H522 lung = test system: NCI-H522 lung
# CCRF-CEM leukemia = test system: CCRF-CEM leukemia
# NCI-H23 lung = test system: NCI-H23 lung
# SN12C renal = test system: SN12C renal
# EKVX NSCLC = test system: EKVX NSCLC
# A498 renal = test system: A498 renal
# PC-3 prostate = test system: PC-3 prostate
# UACC-257 melanoma = test system: UACC-257 melanoma
# HCT-15 colon = test system: HCT-15 colon
# 786-0 renal = test system: 786-0 renal
# NCI-H226 lung = test system: NCI-H226 lung
# MDA-MB-231 breast = test system: MDA-MB-231 breast
# SF-539 CNS = test system: SF-539 CNS
# RPMI-8226 leukemia = test system: RPMI-8226 leukemia
# A549 NSCLC = test system: A549 NSCLC
# OVCAR-3 ovarian = test system: OVCAR-3 ovarian
# SR leukemia = test system: SR leukemia
# HCC-2998 colon = test system: HCC-2998 colon
# UO-31 renal = test system: UO-31 renal
# TK-10 renal = test system: TK-10 renal
# SK-MEL-5 melanoma = test system: SK-MEL-5 melanoma
# SF-268 CNS = test system: SF-268 CNS
# IGROV1 ovarian = test system: IGROV1 ovarian
# MOLT-4 leukemia = test system: MOLT-4 leukemia
# DU-145 prostate = test system: DU-145 prostate
# HS 578T breast = test system: HS 578T breast
# SNB-75 CNS = test system: SNB-75 CNS
# HCT-116 colon = test system: HCT-116 colon
# ACHN renal = test system: ACHN renal
# LOX IMVI melanoma = test system: LOX IMVI melanoma
# SNB-19 CNS = test system: SNB-19 CNS
# HT29 colon = test system: HT29 colon
# RXF 393 renal = test system: RXF 393 renal
# OVCAR-4 ovarian = test system: OVCAR-4 ovarian
# U251 CNS = test system: U251 CNS
# MALME-3M melanoma = test system: MALME-3M melanoma
# SK-MEL-28 melanoma = test system: SK-MEL-28 melanoma
# COLO 205 colon = test system: COLO 205 colon
# SK-OV-3 ovarian = test system: SK-OV-3 ovarian
# HOP-62 NSCLC = test system: HOP-62 NSCLC
compound,measurement,setting,value
CC(=O)NS(=O)(=O)c1ccc(-n2nc(-c3ccc(Cl)cc3)cc2-c2cc(O)ccc2O)cc1,GI50,SW-620 colon,75 µM
same,TGI,SW-620 colon,> 100000 nM
same,GI50,MCF7 breast,> 100 µM
same,TGI,MCF7 breast,> 100 µM
same,GI50,BT-549 breast,> 100 µM
same,TGI,BT-549 breast,> 100 µM
same,GI50,K-562 leukemia,29.9 µM
same,TGI,K-562 leukemia,96 µM
same,GI50,HL-60(TB) leukemia,40.8 µM
same,TGI,HL-60(TB) leukemia,> 100 µM
same,GI50,CAKI-1 renal,28.1 µM
same,TGI,CAKI-1 renal,56.9 µM
same,GI50,KM12 colon,41.1 µM
same,TGI,KM12 colon,> 100 µM
same,GI50,OVCAR-5 ovarian,20.1 µM
same,TGI,OVCAR-5 ovarian,40 µM
same,GI50,M14 melanoma,14 µM
same,TGI,M14 melanoma,27 µM
same,GI50,OVCAR-8 ovarian,33 µM
same,TGI,OVCAR-8 ovarian,> 100 µM
same,GI50,SF-295 CNS,30.9 µM
same,TGI,SF-295 CNS,> 100 µM
same,GI50,MDA-MB-435,31.6 µM
same,TGI,MDA-MB-435,> 100 µM
same,GI50,SK-MEL-2 melanoma,> 100 µM
same,TGI,SK-MEL-2 melanoma,> 100 µM
same,GI50,UACC-62 melanoma,14.5 µM
same,TGI,UACC-62 melanoma,27.6 µM
same,GI50,NCI-H460 lung,> 100 µM
same,TGI,NCI-H460 lung,> 100 µM
same,GI50,NCI/ADR-RES ovarian,27.2 µM
same,TGI,NCI/ADR-RES ovarian,70 µM
same,GI50,HOP-92 NSCLC,17.1 µM
same,TGI,HOP-92 NSCLC,48.4 µM
same,GI50,NCI-H522 lung,37 µM
same,TGI,NCI-H522 lung,> 100 µM
same,GI50,CCRF-CEM leukemia,5.55 µM
same,TGI,CCRF-CEM leukemia,> 100 µM
same,GI50,NCI-H23 lung,18.6 µM
same,TGI,NCI-H23 lung,32.6 µM
same,GI50,SN12C renal,19.6 µM
same,TGI,SN12C renal,40.8 µM
same,GI50,EKVX NSCLC,46.1 µM
same,TGI,EKVX NSCLC,> 100 µM
same,GI50,A498 renal,24.8 µM
same,TGI,A498 renal,93.4 µM
same,GI50,PC-3 prostate,13.8 µM
same,TGI,PC-3 prostate,30 µM
same,GI50,UACC-257 melanoma,15.9 µM
same,TGI,UACC-257 melanoma,45.7 µM
same,GI50,HCT-15 colon,13.6 µM
same,TGI,HCT-15 colon,26.5 µM
same,GI50,786-0 renal,16.1 µM
same,TGI,786-0 renal,29.6 µM
same,GI50,NCI-H226 lung,14.4 µM
same,TGI,NCI-H226 lung,36.2 µM
same,GI50,MDA-MB-231 breast,10.9 µM
same,TGI,MDA-MB-231 breast,22.8 µM
same,GI50,SF-539 CNS,32.4 µM
same,TGI,SF-539 CNS,81.6 µM
same,GI50,RPMI-8226 leukemia,21.1 µM
same,TGI,RPMI-8226 leukemia,59.8 µM
same,GI50,A549 NSCLC,34.9 µM
same,TGI,A549 NSCLC,> 100 µM
same,GI50,OVCAR-3 ovarian,32.6 µM
same,TGI,OVCAR-3 ovarian,84.9 µM
same,GI50,SR leukemia,39.5 µM
same,TGI,SR leukemia,> 100 µM
same,GI50,HCC-2998 colon,20.7 µM
same,TGI,HCC-2998 colon,39.7 µM
same,GI50,UO-31 renal,20.5 µM
same,TGI,UO-31 renal,45.6 µM
same,GI50,TK-10 renal,31.7 µM
same,TGI,TK-10 renal,92.6 µM
same,GI50,SK-MEL-5 melanoma,36.4 µM
same,TGI,SK-MEL-5 melanoma,> 100 µM
same,GI50,SF-268 CNS,52.1 µM
same,TGI,SF-268 CNS,> 100 µM
same,GI50,IGROV1 ovarian,92.8 µM
same,TGI,IGROV1 ovarian,> 100 µM
same,GI50,MOLT-4 leukemia,87.3 µM
same,TGI,MOLT-4 leukemia,> 100 µM
same,GI50,DU-145 prostate,21.5 µM
same,TGI,DU-145 prostate,47.5 µM
same,GI50,HS 578T breast,62.2 µM
same,TGI,HS 578T breast,> 100 µM
O=C1C=CC(=O)c2cc3cc(CO)ccc3cc21,GI50,SW-620 colon,1.51 µM
same,TGI,SW-620 colon,2910 nM
same,GI50,MCF7 breast,14.5 µM
same,TGI,MCF7 breast,33.3 µM
same,GI50,BT-549 breast,12.9 µM
same,TGI,BT-549 breast,25.7 µM
same,GI50,SNB-75 CNS,19.9 µM
same,TGI,SNB-75 CNS,48.6 µM
same,GI50,K-562 leukemia,1.06 µM
same,TGI,K-562 leukemia,3.04 µM
same,GI50,CAKI-1 renal,3.48 µM
same,TGI,CAKI-1 renal,10.3 µM
same,GI50,KM12 colon,19.3 µM
same,TGI,KM12 colon,51.3 µM
same,GI50,OVCAR-5 ovarian,20.5 µM
same,TGI,OVCAR-5 ovarian,55.6 µM
same,GI50,M14 melanoma,14.4 µM
same,TGI,M14 melanoma,27.5 µM
same,GI50,HCT-116 colon,1820 nM
same,TGI,HCT-116 colon,3.22 µM
same,GI50,OVCAR-8 ovarian,2.94 µM
same,TGI,OVCAR-8 ovarian,11.2 µM
same,GI50,ACHN renal,3.22 µM
same,TGI,ACHN renal,10.8 µM
same,GI50,SF-295 CNS,20 µM
same,TGI,SF-295 CNS,37.8 µM
same,GI50,MDA-MB-435,10.4 µM
same,TGI,MDA-MB-435,23.6 µM
same,GI50,SK-MEL-2 melanoma,16.8 µM
same,TGI,SK-MEL-2 melanoma,32.8 µM
same,GI50,UACC-62 melanoma,17.9 µM
same,TGI,UACC-62 melanoma,31.8 µM
same,GI50,NCI-H460 lung,19.1 µM
same,TGI,NCI-H460 lung,39.8 µM
same,GI50,NCI/ADR-RES ovarian,19.5 µM
same,TGI,NCI/ADR-RES ovarian,36.2 µM
same,GI50,HOP-92 NSCLC,2.76 µM
same,TGI,HOP-92 NSCLC,6.51 µM
same,GI50,NCI-H522 lung,9.48 µM
same,TGI,NCI-H522 lung,26.4 µM
same,GI50,LOX IMVI melanoma,1940 nM
same,TGI,LOX IMVI melanoma,4.1 µM
same,GI50,SNB-19 CNS,20 µM
same,TGI,SNB-19 CNS,66.8 µM
same,GI50,NCI-H23 lung,15.8 µM
same,TGI,NCI-H23 lung,29.2 µM
same,GI50,HT29 colon,10.9 µM
same,TGI,HT29 colon,> 100 µM
same,GI50,SN12C renal,5.76 µM
same,TGI,SN12C renal,15.8 µM
same,GI50,EKVX NSCLC,14.5 µM
same,TGI,EKVX NSCLC,28.1 µM
same,GI50,PC-3 prostate,16.2 µM
same,TGI,PC-3 prostate,34.1 µM
same,GI50,RXF 393 renal,14.6 µM
same,TGI,RXF 393 renal,29.9 µM
same,GI50,OVCAR-4 ovarian,5.55 µM
same,TGI,OVCAR-4 ovarian,24.7 µM
same,GI50,UACC-257 melanoma,12 µM
same,TGI,UACC-257 melanoma,27.2 µM
same,GI50,HCT-15 colon,15.1 µM
same,TGI,HCT-15 colon,28.4 µM
same,GI50,786-0 renal,1.74 µM
same,TGI,786-0 renal,3.31 µM
same,GI50,NCI-H226 lung,16.7 µM
same,TGI,NCI-H226 lung,31.5 µM
same,GI50,U251 CNS,15.4 µM
same,TGI,U251 CNS,28.7 µM
same,GI50,MDA-MB-231 breast,11.5 µM
same,TGI,MDA-MB-231 breast,24.9 µM
same,GI50,MALME-3M melanoma,11.5 µM
same,TGI,MALME-3M melanoma,26.1 µM
same,GI50,A549 NSCLC,19.3 µM
same,TGI,A549 NSCLC,45.1 µM
same,GI50,OVCAR-3 ovarian,1.71 µM
same,TGI,OVCAR-3 ovarian,4.2 µM
same,GI50,SK-MEL-28 melanoma,29.5 µM
same,TGI,SK-MEL-28 melanoma,> 100 µM
same,GI50,COLO 205 colon,11.1 µM
same,TGI,COLO 205 colon,49.5 µM
same,GI50,HCC-2998 colon,4.42 µM
same,TGI,HCC-2998 colon,14.1 µM
same,GI50,UO-31 renal,2.35 µM
same,TGI,UO-31 renal,4.58 µM
same,GI50,TK-10 renal,15.5 µM
same,TGI,TK-10 renal,30 µM
same,GI50,SK-MEL-5 melanoma,10.9 µM
same,TGI,SK-MEL-5 melanoma,22.9 µM
same,GI50,SF-268 CNS,16.7 µM
same,TGI,SF-268 CNS,34.7 µM
same,GI50,IGROV1 ovarian,8.79 µM
same,TGI,IGROV1 ovarian,26 µM
same,GI50,MOLT-4 leukemia,0.621 µM
same,TGI,MOLT-4 leukemia,> 100 µM
same,GI50,DU-145 prostate,1.1 µM
same,TGI,DU-145 prostate,2.54 µM
same,GI50,HS 578T breast,21.3 µM
same,TGI,HS 578T breast,55.4 µM
same,GI50,SK-OV-3 ovarian,31.9 µM
same,TGI,SK-OV-3 ovarian,> 100 µM
same,GI50,HOP-62 NSCLC,17.3 µM
same,TGI,HOP-62 NSCLC,31.1 µM
